Counter-ions that a name gives are not always drawn.
System: urine-derived renal epithelial cells
Test: AP staining of iPSC clones after induction culture (efficiency of AP positive clones)
Type: cell-based, human
Details: Example 5, FIG. 11-12
Procedure: 1. The procedure for AP staining is as follows,
a) Aspirate and remove the growth medium from the cultures to be stained when the cell culture is finished, wash the culture with 1×PBS one time; Fix the cells with 4% paraformaldehyde at room temperature for 2 min;
b) Aspirate the fixing solution, wash the culture with 1×TBST for 3 times; Balance with AP buffer at room temperature for 5 min;
c) Chromogenic reaction was performed with AP chromogenic reagent at room temperature in dark for 15 min (5-15 min, terminated when the color of clones became darker and without background, increase the reaction time appropriately if the clones were not stained). The chromogenic reagent was aspirated, cells were washed with 1×PBS for two times, covered with an appropriate amount of 1×PBS, observed and counted under a microscope.
Alkaline phosphatase (AP) is a phosphomonoesterase. The alkaline phosphatase in the cytoplasm can hydrolyze sodium naphthol phosphate to produce α-naphthol in alkaline environments. The latter reacts with a stable azo salt and presents a deep purple color, which the presence of alkaline phosphatase and the abundance of expression could be determined accordingly. Alkaline phosphatase is highly expressed in undifferentiated pluripotent stem cells, and the activity of alkaline phosphatase in the differentiated pluripotent stem cells is decreased. Therefore, whether the cells are clones of iPSCs could be determined by alkaline phosphatase staining (AP staining). And, thus the efficiency of iPSCs production can be easily judged according to the efficiency of AP positive clones.
In Example 1-2 and 4-6, the efficiency of AP positive clones was determined based on the number of cells in each group after electroporation transformation, ie the efficiency of AP positive clones=number of AP positive clones/number of passaged cells per well after electroporation in each group;
In Example 3 and 7-10, the efficiency of AP positive clones was determined based on the total number of cells after electroporation transformation, i.e. the efficiency of AP positive clones=number of AP positive clones/total number of cells after electroporation transformation.
a) Electroporation transformation: The recombinant plasmids obtained in step 1) were added into the culture of renal epithelial cells after digestion with trypsin, and then transferred into the renal epithelial cells. […]
b) Induction culture: 1-3 days after Step 1), or when the cells reached a confluence of 30% or more, the culture medium of pluripotent stem cell was used to continue induction culture. About 15-30 days after the mature of iPSCs clones, the positive clones of iPSCs were identified by AP staining, and the efficiency of AP positive clones was calculated accordingly;

Structure (SMILES) | preferable concentration (AP staining) [µM]
O=C(NOC[C@H](O)CO)c1ccc(F)c(F)c1Nc1ccc(I)cc1F [PD0325901] | 0.5
Cc1c[nH]c(-c2cnc(NCCNc3ccc(C#N)cn3)nc2-c2ccc(Cl)cc2Cl)n1 [CHIR-99021] | 3
N[C@@H]1C[C@H]1c1ccccc1 [tranylcypromine hydrochloride, Tranylcypromine hydrochloride] | 2
CCCC(=O)[O-].[Na+] [sodium butyrate, Sodium Butyrate] | 250
